Data published in US20070129252A1, “2-Halo-6-alkylphenyl-substituted spirocyclic tetramic acid derivatives” (BAYER CROPSCIENCE AKTIENGESELLSCHAFT, priority 2003, published 2007).

Assays:
Type in all cases: in vivo
Lolium [1] = assay: Post-emergence test (Example J); details: greenhouse, 60 g of a.i./ha, after three weeks
Protocol: (§1) To produce a suitable preparation of active compound, 1 part by weight of active compound is mixed with the stated amount of solvent, the stated amount of emulsifier is added and the concentrate is diluted with water to the desired concentration.
(§2) Test plants of a height of 5-15 cm are sprayed with the preparation of active compound such that the particular amounts of active compound desired are applied per unit area. The concentration of the spray liquor is chosen such that the particular amounts of active compound desired are applied in 1000 l of water/ha.
(§3) After three weeks, the degree of damage in the plants is rated in % damage in comparison to the development of the untreated control.
(§4) 0%=no effect (like untreated control)

sugarbeets [2] = assay: Post-emergence test (Example J); details: greenhouse, 60 g of a.i./ha, after three weeks
Protocol: as §1, §2, §3, §4

Echinochloa [3] = assay: Post-emergence test (Example J); details: greenhouse, 60 g of a.i./ha, after three weeks
Protocol: as §1, §2, §3, §4

Aphis gossypii = Aphis gossypii test; details: 500 ppm; dip treatment; cotton leaves
Protocol: (§5) To produce a suitable preparation of active compound, 1 part by weight of active compound is mixed with the stated amounts of solvent and emulsifier, and the concentrate is diluted with emulsifier-containing water to the desired concentration.
Cotton leaves (Gossypium hirsutum), which are heavily infested by the cotton aphid (Aphis gossypii), are treated by being dipped into the preparation of active compound of the desired concentration.
(§6) After the desired period of time, the kill in % is determined. 100% means that all aphids have been killed; 0% means that none of the aphids have been killed.

Lolium [4] = assay: Pre-emergence test (Example K); details: greenhouse, 30 g of a.i./ha, after three weeks
Protocol: as §1
(§7) Seeds of the test plants are sown in normal soil. After about 24 hours, the soil is sprayed with the preparation of active compound such that the particular amounts of active compound desired are applied per unit area. The concentration of the spray liquor is chosen such that the particular amounts of active compound desired are applied in 1000 l of water/ha.
(§8) After three weeks, the degree of damage to the plants is rated in % damage in comparison to the development of the untreated control.
as §4

sugarbeets [5] = assay: Pre-emergence test (Example K); details: greenhouse, 30 g of a.i./ha, after three weeks
Protocol: as §1, §7, §8, §4

Echinochloa [6] = assay: Pre-emergence test (Example K); details: greenhouse, 30 g of a.i./ha, after three weeks
Protocol: as §1, §7, §8, §4

Setaria [7] = assay: Pre-emergence test (Example K); details: greenhouse, 30 g of a.i./ha, after three weeks
Protocol: as §1, §7, §8, §4

Tetranychus urticae = assay: Tetranychus test (OP-resistant/dip treatment); details: 100 ppm; dip treatment; bean plants (Table H)
Protocol: Tetranychus Test (OP-Resistant/Dip Treatment)
as §5
Bean plants (Phaseolus vulgaris), which are heavily infested by all stages of the greenhouse red spider mite (Tetranychus urticae), are dipped into a preparation of active compound of the desired concentration.
After the desired period of time, the activity in % is determined. 100% means that all spider mites have been killed; 0% means that none of the spider mites have been killed.

summer barley = assay: Herbicidal post-emergence action, vessel trials with cereals in the greenhouse, use of safeners (Example N); details: without safener
Protocol: (§9) Herbicidal Post-Emergence Action
(§10) Seeds of monocotyledonous and dicotyledonous weed and crop plants are placed into sandy loam in wood fibre pots or in plastic pots, covered with soil and cultivated in a greenhouse, during the vegetation period also outdoors outside of the greenhouse, under good growth conditions. 2-3 weeks after sowing, the test plants are treated at the one- to three-leaf stage. The test compounds, formulated as wettable powders (WP) or emulsifiable concentrates (EC) are, in various dosages with a water application rate of 300 l/ha (converted), with wetting agent (0.2 to 0.3%) added, sprayed onto the plants and the surface of the soil. 3-4 weeks after the treatment of the test plants, the effect of the preparations is rated visually in comparison to untreated controls (herbicidal effect in percent (%): 100% effect=the plants have died, 0% effect=like control plants).
(§11) If it is additionally to be tested as to whether safeners can improve the plant compatibility of test substances in the case of crop plants, the following options are used for applying the safener: • seeds of the crop plants are, before sowing, dressed with the safener substance (the amount of safener is stated in percent, based on the weight of the seed) • before the application of the test substances, the crop plants are sprayed with the safener at a certain application rate per hectare (usually 1 day before the application of the test substances) • the safener is applied together with the test substance as a tank mix (the amount of safener is stated in g/ha or as a ratio, based on the herbicide).
(§12) By comparing the effect of the test substances on crop plants without or with safener treatment, it is possible to assess the effect of the safener substance.
(§13) Vessel Trials with Cereals in the Greenhouse
(§14) Mefenpyr applied 1 day prior to the application of herbicide

summer wheat = assay: as above; details: without safener
Protocol: as §9, §10, §11, §12, §13, §14

Phaedon cochleariae = assay: Phaedon larvae test (dip treatment); details: 500 ppm, cabbage leaves
Protocol: Phaedon Larvae Test (Dip Treatment) [[[…]]] To produce a suitable preparation of active compound, 1 part by weight of active compound is mixed with the stated amounts of solvent and emulsifier, and the concentrate is diluted with emulsifier-containing water to the desired concentration. Cabbage leaves (Brassica oleracea) are treated by being dipped into the preparation of active compound of the desired concentration and are populated with larvae of the mustard beetle (Phaedon cochleariae) while the leaves are still moist.

Myzus persicae [8] = assay: Myzus test (dip treatment); details: cabbage leaves
Protocol: Myzus Test (Dip Treatment)
as §5
Cabbage leaves (Brassica oleracea), which are heavily infested by the green peach aphid Myzus persicae), are treated by being dipped into the preparation of active compound of the desired concentration.
as §6

Meloidogyne incognita = assay: Meloidogyne test; details: 20 ppm; formation of galls on lettuce roots
Protocol: To produce a suitable preparation of active compound, 1 part by weight of active compound is mixed with the stated amounts of solvent and emulsifier, and the concentrate is diluted with water to the desired concentration.
Vessels are filled with sand, solution of active compound, Meloidogyne incognita egg/larvae suspension and lettuce seeds. The lettuce seeds germinate and the plants develop. On the roots, galls develop.
After the desired period of time, the nematicidal action is determined in % by the formation of galls. 100% means that no galls have been found; 0% means that the number of galls on the treated plants corresponds to that of the untreated control.

Lolium [9] = assay: Herbicidal pre-emergence action (Example L); details: greenhouse, 320 g of a.i./ha, 3 weeks
Description: (§15) Herbicidal Pre-Emergence Action
(§16) Seeds of monocotyledonous and dicotyledonous weed and crop plants are placed into sandy loam in wood fibre pots and covered with soil. The test compounds, formulated in the form of wettable powders (WP), are then, in various dosages as aqueous suspension with a water application rate of 600 l/ha (converted), with 0.2% of wetting agent added, applied to the surface of the covering soil.
(§17) After the treatment, the pots are placed in a greenhouse and kept under good growth conditions for the test plants. The visual assessment of the emergence damage on the test plants is carried out after a trial period of 3 weeks by comparison with untreated controls (herbicidal effect in percent (%): 100% effect=the plants have died, 0% effect=like control plants).

Avena sativa [10] = assay: Herbicidal pre-emergence action (Example L); details: greenhouse, 320 g of a.i./ha, 3 weeks
Description: as §15, §16, §17

Sinapis = assay: Herbicidal pre-emergence action (Example L); details: greenhouse, 320 g of a.i./ha, 3 weeks
Description: as §15, §16, §17

Setaria [11] = assay: Herbicidal pre-emergence action (Example L); details: greenhouse, 320 g of a.i./ha, 3 weeks
Description: as §15, §16, §17

Stellaria = assay: Herbicidal pre-emergence action (Example L); details: greenhouse, 320 g of a.i./ha, 3 weeks
Description: as §15, §16, §17

Lolium [12] = assay: Herbicidal post-emergence action (Example M); details: greenhouse, 320 g of a.i./ha, about 3 weeks
Protocol: as §9
(§18) Seeds of monocotyledonous and dicotyledonous weed and crop plants are placed into sandy loam in wood fibre pots, covered with soil and cultivated in a greenhouse under good growth conditions. 2-3 weeks after sowing, the test plants are treated at the one-leaf stage. The test compounds, formulated as wettable powders (WP), are, in various dosages with a water application rate of 600 l/ha (converted), with 0.2% of wetting agent added, sprayed onto the green parts of the plants. After the test plants were kept in the greenhouse under optimum growth conditions for about 3 weeks, the effect of the preparations is rated visually in comparison to untreated controls (herbicidal effect in percent (%): 100% effect=the plants have died, 0% effect=like control plants).

Avena sativa [13] = assay: Herbicidal post-emergence action (Example M); details: greenhouse, 320 g of a.i./ha, about 3 weeks
Protocol: as §9, §18

Setaria [14] = assay: Herbicidal post-emergence action (Example M); details: greenhouse, 320 g of a.i./ha, about 3 weeks
Protocol: as §9, §18

Myzus persicae [15] = assay: Myzus test (spray treatment); details: 100 g/ha, Chinese cabbage discs
Protocol: Myzus Test (Spray Treatment)
as §5
Discs of Chinese cabbage (Brassica pekinensis), which are infested by all stages of the green peach aphid (Myzus persicae), are sprayed with a preparation of active compound of the desired concentration.
After the desired period of time, the effect in % is determined. 100% means that all aphids have been killed; 0% means that none of the aphids have been killed.

SMILES: CCc1cc(C)cc(Cl)c1C1=C(O)C2(CCC(OC)CC2)NC1=O (single isomer, unassigned) [Example I-a-4]
- % damage, Lolium (Lolium [1]): 100%
- % damage, sugarbeets (sugarbeets [2]): 0%
- % damage, Echinochloa (Echinochloa [3]): 100%
- Kill rate in % after 6d (Aphis gossypii): 80%
- % damage, Lolium (Lolium [4]): 100%
- % damage, sugarbeets (sugarbeets [5]): 0%
- % damage, Echinochloa (Echinochloa [6]): 80%
- % damage, Setaria (Setaria [7]): 100%
- Kill rate in % after 7d (Tetranychus urticae): 99%
- summer barley observed (%) (summer barley; 12.5 g of a.i./ha): 10%
- summer barley observed (%) (summer barley; 25 g of a.i./ha): 30%
- summer barley observed (%) (summer barley; 50 g of a.i./ha): 97%
- summer wheat observed (%) (summer wheat; 12.5 g of a.i./ha): 50%
- summer wheat observed (%) (summer wheat; 25 g of a.i./ha): 98%
- Kill rate in % after 7d (Phaedon cochleariae): 100%
- Kill rate in % after 6d (Myzus persicae [8]; 4 ppm): 95%

SMILES: CCc1cc(C)cc(Br)c1C1=C(O)C2(CCOCC2)NC1=O [Example I-a-1]
- Effect in % after 14d (Meloidogyne incognita): 80%
- herbicidal effect in percent, Lolium (Lolium [9]): 80%
- herbicidal effect in percent, Avena sativa (Avena sativa [10]): 70%
- herbicidal effect in percent, Sinapis (Sinapis): 70%
- herbicidal effect in percent, Setaria (Setaria [11]): 90%
- herbicidal effect in percent, Stellaria (Stellaria): 100%
- herbicidal effect in percent, Lolium (Lolium [12]): 100%
- herbicidal effect in percent, Avena sativa (Avena sativa [13]): 100%
- herbicidal effect in percent, Setaria (Setaria [14]): 80%
- Kill rate in % after 5d (Myzus persicae [15]): 100%
- Kill rate in % after 6d (Myzus persicae [8]; 100 ppm): 75%
